Test results as given in paper PMC3688238, “The effect of different dosing regimens of motesanib on the gallbladder: a randomized phase 1b study in patients with advanced solid tumors” (BMC Cancer, 2013).
Where two headings read alike, the source gives them in different places.

Tests used:
Format in all cases: in vivo, human
gallbladder = experiment: Specific gallbladder findings per independent ultrasound review
Experimental: Gallbladder volume was assessed by ultrasound after a ≥8 hours fast at screening (within 21 days prior to randomization) and before the motesanib morning dose on days 8 and 15 of cycle 1, on day 1 of cycles 2 and 3, every 6 weeks thereafter, and at the safety follow-up (30 to 33 days after the last dose). Ultrasound was performed weekly when motesanib was withheld and weekly for 4 weeks following treatment discontinuation. Gallbladder ultrasound measurements were assessed by independent central radiologic review (MedQIA, Los Angeles, CA, USA). Gallbladder ejection fraction was assessed by investigators or other study site personnel using CCK-HIDA at screening (within 21 days of randomization), on day 1 of cycle 2, day 1 of cycle 6 (±3 days), and at the safety follow-up. Study-specific training and standard operating procedures were supplied to all radiology technicians.

[1] = tested on: patients with advanced metastatic solid tumors; experiment: Adverse events (NCI CTCAE version 3.0)
Experimental: AEs occurring during treatment and through the safety follow-up were recorded and graded according to the National Cancer Institute Common Terminology Criteria for Adverse Events (version 3.0).

[2] = tested on: advanced metastatic solid tumors; experiment: Tumor response per RECIST (investigator)
Experimental: Tumor response per RECIST [27] was assessed by the investigators. Magnetic resonance imaging or CT scans were performed at screening, every 6 weeks thereafter, and at the safety follow-up. Complete or partial responses were confirmed >28 days after the initial response assessment throughout the study. Patients who discontinued without a postbaseline tumor assessment or confirmation were considered nonresponders.
The ultrasound and CCK-HIDA gallbladder analysis sets, which included all randomized patients who received ≥1 dose of motesanib and had baseline and ≥1 evaluable follow-up ultrasound or CCK-HIDA, respectively, were used for the principal analysis of endpoints related to gallbladder size and characteristics. For each dosing scheme, estimates for the mean and maximum change from baseline in gallbladder size (volume as measured by ultrasound) and function (ejection fraction as measured by CCK-HIDA scan) were calculated. Mean change from baseline was calculated by taking the difference between the baseline gallbladder measurement and the average gallbladder measurement observed during study treatment. The mean (95% CI) difference was then calculated across all patients for each treatment arm, and for the whole study population. Maximum change from baseline in gallbladder size or volume was calculated by taking the difference between the baseline gallbladder measurement and the maximum gallbladder measurement observed during study treatment. The mean (95% CI) maximum change from baseline was then calculated across all patients for each treatment arm, and for the whole study population. Reversibility of changes in gallbladder volume and ejection fraction were evaluated calculating changes between the last on-treatment measurement and the last available measurement following the discontinuation of motesanib. Covariates (treatment, age, sex, body mass index, and nonsteroidal anti-inflammatory drug [NSAID] use) were explored in a linear regression model for potential relationships with gallbladder volume. Objective response was assessed for the safety analysis set, including only patients with measureable disease at baseline.

[3] = Pharmacokinetic analysis of plasma motesanib concentrations (noncompartmental); conditions: for concentration at 24 h: read-out: Median Cmin (trough plasma concentration at 24 hours postdose); for Cmax: po, read-out: Median Cmax
Experimental: Blood samples were collected as follows: predose and at 30 minutes and 1, 2, 4, 6, 8, and 24 hours postdose on day 1 of weeks 1 and 4, and predose and 1 to 2 hours postdose at weeks 2, 3, and 7 and every 3 weeks thereafter. […] Motesanib concentrations were assessed as described previously.

[4] = Arm B, 75 mg BID 2 wk on/1 wk off, post treatment, n = 9
[5] = Arm C, 75 mg BID 5 d on/2 d off
[6] = Arm C, 75 mg BID 5 d on/2 d off, post baseline, n = 11
[7] = Arm C, 75 mg BID 5 d on/2 d off, post treatment, n = 8

Patients who developed de novo gallstones during treatment (gallbladder; all arms): Two | Median motesanib concentration after wash-out period ([3]; Arm B, after the 1-week wash-out period, limit of quantitation 0.2 ng/mL): < 0.2 ng/mL | Median motesanib concentration after wash-out period ([3]; Arm C, after the 2-day wash-out period): 1.2 ng/mL | Drug accumulation ([3]; after QD administration): no evidence of drug accumulation | concentration at 24 h ([3]; human, plasma, oral, 75 mg, Arm B, 75 mg BID 2 wk on/1 wk off): 60 ng/mL | concentration at 24 h ([3]; human, plasma, oral, 75 mg, Arm C, 75 mg BID 5 d on/2 d off): 35 ng/mL | concentration at 24 h ([3]; human, plasma, oral, 125 mg, Arm A, 125 mg QD): 14 ng/mL | AUC ([3]; human, plasma, oral, range across the three dosing regimens, read-out: Median AUC): 1900 to 3000 ng·h/mL | Cmax ([3]; human, plasma, 75 mg, Arm B, 75 mg BID 2 wk on/1 wk off, plasma, oral): 323 ng/mL | Cmax ([3]; human, plasma, 75 mg, Arm C, 75 mg BID 5 d on/2 d off, plasma, oral): 355 ng/mL | Cmax ([3]; human, plasma, 125 mg, Arm A, 125 mg QD, plasma, oral): 630 ng/mL
SMILES: CC1(C)CNc2cc(NC(=O)c3cccnc3NCc3ccncc3)ccc21 [Motesanib]
Pericholecystic fluid, patient incidence (gallbladder; [4]): 0 (0) n (%) | Sludge, patient incidence (gallbladder; [4]): 4 (44) n (%) | Incidence of biliary sludge (gallbladder; [5]): 27% | Common duct dilation, patient incidence (gallbladder; [6]): 0 (0) n (%) | Gallstones, patient incidence (gallbladder; [6]): 0 (0) n (%) | Pericholecystic fluid, patient incidence (gallbladder; [6]): 0 (0) n (%) | Sludge, patient incidence (gallbladder; [6]): 3 (27) n (%) | Common duct dilation, patient incidence (gallbladder; [7]): 0 (0) n (%) | Gallstones, patient incidence (gallbladder; [7]): 0 (0) n (%) | Pericholecystic fluid, patient incidence (gallbladder; [7]): 0 (0) n (%) | Sludge, patient incidence (gallbladder; [7]): 0 (0) n (%) | Incidence of grade ≥3 treatment-related AEs ([1]; Arm A, 125 mg QD): 32% | Patients with serious grade 3 acute cholecystitis resulting in cholecystectomy ([1]; Arm A, approximately 1 month after treatment initiation): one | Patients with cholecystitis that resolved after treatment discontinuation ([1]; Arm A, grades 1, 2, 3, n = 1 each): Three | Patients with grade 1 gallbladder disorders (gallbladder dysfunction, gallbladder wall thickening) ([1]; Arm A, ongoing at safety follow-up): two | Incidence of grade ≥3 treatment-related AEs ([1]; Arm B, 75 mg BID 2 wk on/1 wk off): 42% | Incidence of grade ≥3 treatment-related AEs [1, 5]: 33% | Patients with right upper quadrant pain during the study ([1]; all patients): Twelve | Patients with grade 4 AEs ([1]; all patients (one each in Arms B and C)): Two | Gallbladder toxicity events (all considered treatment-related), incidence ([1]; occurred only in Arm A, 125 mg QD): 12% | Durable (≥24 weeks) stable disease ([2]; Arm A, n = 6): 25% | Progressive disease ([2]; Arm A, n = 8): 33% | Stable disease as best tumor response ([2]; Arm A, n = 15): 63% | Durable (≥24 weeks) stable disease ([2]; Arm B, n = 1): 8% | Progressive disease ([2]; Arm B, n = 3): 25% | Stable disease as best tumor response ([2]; Arm B, n = 6): 50% | Patients with confirmed partial response ([2]; Arm B, stage IV thyroid cancer): one | Durable (≥24 weeks) stable disease ([2]; Arm C, n = 1): 9% | Progressive disease ([2]; Arm C, n = 4): 36% | Stable disease as best tumor response ([2]; Arm C, n = 7): 64% | Complete responses ([2]; all patients): No complete responses were achieved | Durable (≥24 weeks) stable disease ([2]; all patients (8 patients)): 17% | Progressive disease ([2]; all patients (fifteen patients)): 32% | Stable disease as best tumor response ([2]; all patients (twenty-eight patients)): 60% | Overall objective response rate ([2]; all patients with measurable disease at baseline, RECIST): 2%
